Here are results for two molecules from patent US9801854B1, “Slow release formulations of cell cycle regulators and anti-cancer agents for local treatment of solid cancer” (THERACOAT LTD., priority 2014, dated 2017).

Holding throughout (format): cell-based, human
In assay [1] the test system is UM-UC-3 cells. Nature of the assay: XTT cytotoxicity assay. As to conditions: for viability at 1000 µM: Homo sapiens, 1 mM HU 20 hours, wash, untreated cells = 100%; for pEC50: read-out: EC50 (cell viability). As to the method: Cells were washed in media to inactivate trypsin before reseeding or analysis.
Hydroxyurea concentrations were selected based upon concentration ranges known in the art.
XTT assay for cytotoxicity was then performed and plates were analyzed in an ELISA reader at a wave length of 490 nm.
Cells were pretreated with 1 mM HU (or DMSO-vehicle control) for 20 hours. […] The percentage of viable cells presented was calculated from untreated cells with viability of 100%.
UM-UC-3 cells were cultured in 96 well microculture plates. Cells were pretreated with 1 mM HU (or DMSO-vehicle control) for 20 hours. Cells were then washed. […] The percentage of viable cells presented was calculated from untreated cells with viability of 100%.
The methods used were as described in the other examples. Briefly, UM-UC-3 cells were cultured in 96 well microculture plates. Cells were pretreated with 1 mM HU (or DMSO-vehicle control) for 2 hours. […] The percentage of viable cells presented in the figures and table was calculated from untreated cells with viability of 100%.

The subject of assay [2] is UM-UC-3 cells. Nature of the assay: Cell cycle analysis by flow cytometry (PI staining) after HU exposure and withdrawal. The note with it: 1 mM HU for 20 hours, wash, 2-10 hours without drug, majority in S phase 4 to 8 hours after wash. As to the method:
(§1) The human bladder cancer cell lines, UM-UC-3 and RT-4, were obtained from the ATCC and grown in RPMI 1640 medium (Gibco) supplemented with 10% v/v fetal calf serum (Gibco), 100 U/ml penicillin and 100 µg/ml streptomycin (Biological Industries). Cells were grown at 37° C., 5% CO2 in a humidified atmosphere and harvested using 0.25% w/v trypsin, 0.02% w/v EDTA. Cells were washed in media to inactivate trypsin before reseeding or analysis. A LSRII Flow cytometer or Cyan Flow Cytometer were used for determining DNA content and cell cycle distribution of UM-UC-3 and RT-4 cells. Cells were seeded in 6 well plates (10^6 cells/well) and incubated overnight. […] When sequential treatment was done, the second drug was administered immediately or 2-48 hours following the wash of the 1st treatment. The 2nd treatment was then applied for additional 2-48 hrs before analysis. […] PI staining was identified by using the red fluorescence (585+/−40 nm). In some experiments, cells harvested as for cell cycle determination were also stained with Annexin V or anti-activated Caspase-3 antibody for identifying apoptotic cells. Annexin V or activated Caspase-3 positive cells were identified using the green fluorescence (530+/−30 nm).
For orientation: Flow cytometry measures light scatter and fluorescence of single cells or particles in a stream.

For assay [3], the system named is RT-4 cells. The assay is described as above. The note with it: 1 mM HU for 20 hours, wash, 2-10 hours without drug, majority in S phase 4 to 8 hours after wash. As to the method:
as §1

pEC50: −log10 of the molar value. Where two headings read alike, the source gives them in different places.

Turning to `NC(=O)NO` [HU, Hydroxyurea], the viability – broadly, a per cent measure of how many cells are alive, often set against a control – at 1000 µM in assay [1] (UMUC3, Example 3: UM-UC-3, 20 μM MMC, XTT 24 hours after MMC addition) amounted to 76.5%; in assay [1] (UMUC3, Example 4: UM-UC-3, 2 hours delay, 10 μM MMC 8 hours, XTT 48 hours after MMC addition), 59.6%. Besides, the “cell cycle arrest / synchronization in S phase” value in assay [2] and in assay [3] was “cell cycle synchronization at the S phase” throughout.
`CO[C@@]12[C@H](COC(N)=O)C3=C(C(=O)C(C)=C(N)C3=O)N1C[C@@H]1N[C@@H]12` [MMC, Mitomycin C]: the pEC50 (in general, the negative decadic logarithm of the EC50, by convention in mol/L) is around 4.70 in assay [1] (Example 3 conditions: UM-UC-3, MMC 24 hours, XTT) and 5.00 in assay [1] (Example 4 conditions: UM-UC-3, MMC 8 hours, XTT 48 hours after MMC addition).
